Data reported in paper PMC6368365, “Didehydro-Cortistatin A Inhibits HIV-1 by Specifically Binding to the Unstructured Basic Region of Tat” (mBio, 2019).

Test system: recombinant Tat transactivation of HIV-1 transcription in OM10.1 cells
Assay: Transactivation assay with recombinant Tat in OM10.1 cell model of HIV-1 latency
Type: cell-based
Conditions: Tat 1 μg, dCA 250 nM
Text: The production of functional recombinant HIV-1 Tat in Escherichia coli is not trivial as the proper folding of Tat is extremely important for activity, and when expressed by itself, Tat agglomerates mostly because of oxidation of the cysteine residues in the cysteine region. Tat can also adhere to different surfaces and anionic polymers via its charged and hydrophobic residues ([21], [22]). We produced and purified recombinant HIV Tat HXB3 (residues 1 to 89) with a 6×His tag in the C-terminus in E. coli. For this, we have partially optimized the arginine codon usage and changed the rare AGA into codon CGT at arginine positions 7, 53, 56, and 87 of Tat (Fig. 1A). […] After Tat purification using nickel affinity chromatography followed by size exclusion filtration, Tat protein size was analyzed by SDS-PAGE followed by Coomassie blue staining (Fig. 1B). The specificity of the bands was confirmed by Western blotting using anti-Tat serum and anti-His antibody (Fig. 1B). The purity of Tat was further verified by size exclusion chromatography and high-performance liquid chromatography (HPLC) (Fig. 1C and D). […]
FIG 1 Purity and activity of the monomeric His-tagged Tat HXB3 and analysis of its direct binding to dCA. […] Statistical significance was determined using one-way ANOVA with post hoc Tukey’s test. ns, not significant; ***, P < 0.0001; *, P < 0.01. […]

Structure (SMILES)	inhibition of recombinant Tat transactivation (HIV mRNA)
CN(C)C1CC23CCC4(O2)C(=CCC2(C)C(c5ccc6ccncc6c5)=CCC24)C=C3C(O)C1O (centres unmarked) [dCA, didehydro-cortistatin A]	inhibited transcriptional activity of Tat
C[C@@](Cc1ccc(O)c(O)c1)(NN)C(=O)O.O [SCM, S-(−)-carbidopamonohydrate, reference compound]	no activity
